# Data published in ChEMBL document CHEMBL5523759, “Discovery of Novel HDAC3 Inhibitors with PD-L1 Downregulating/Degrading and Antitumor Immune Effects” (J Med Chem, 2024).
# Activity calls are given as the source filed them. The calls are words filed in the database; no cut-off is given here.
# Experiments:
# Histone deacetylase 8 = target: T1, Histone deacetylase 8 (Homo sapiens, UniProt Q9BY41); assay: Inhibition of human recombinant HDAC8 using Ac-Leu-Gly-Lys (Tfa)-AMC as substrate preincubated with compound for 10 mins followed by substrate addition and measured after 45 mins by TECAN microtiter plate reader analysis
# T1 sequence (Q9BY41 whole entry): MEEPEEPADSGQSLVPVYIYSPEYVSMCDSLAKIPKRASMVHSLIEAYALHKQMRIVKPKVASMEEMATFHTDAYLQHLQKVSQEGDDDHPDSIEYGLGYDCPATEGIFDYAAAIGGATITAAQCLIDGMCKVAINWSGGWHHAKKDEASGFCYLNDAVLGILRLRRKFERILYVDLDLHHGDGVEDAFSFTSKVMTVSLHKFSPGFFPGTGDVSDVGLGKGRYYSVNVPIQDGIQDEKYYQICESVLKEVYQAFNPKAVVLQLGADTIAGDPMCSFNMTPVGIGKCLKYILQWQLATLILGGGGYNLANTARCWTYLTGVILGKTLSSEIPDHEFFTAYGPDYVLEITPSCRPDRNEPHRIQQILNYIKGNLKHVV
# Raji = assay: Antiproliferative activity against human Raji cells assessed as reduction in cell viability measured for 48 hrs by MTT assay; type: functional, cell-based
# Histone deacetylase 7 = target: T2, Histone deacetylase 7 (Homo sapiens, UniProt Q8WUI4); assay: Inhibition of human recombinant HDAC7 using Ac-Leu-Gly-Lys (Tfa)-AMC as substrate preincubated with compound for 10 mins followed by substrate addition and measured after 45 mins by TECAN microtiter plate reader analysis
# T2 sequence (Q8WUI4 whole entry): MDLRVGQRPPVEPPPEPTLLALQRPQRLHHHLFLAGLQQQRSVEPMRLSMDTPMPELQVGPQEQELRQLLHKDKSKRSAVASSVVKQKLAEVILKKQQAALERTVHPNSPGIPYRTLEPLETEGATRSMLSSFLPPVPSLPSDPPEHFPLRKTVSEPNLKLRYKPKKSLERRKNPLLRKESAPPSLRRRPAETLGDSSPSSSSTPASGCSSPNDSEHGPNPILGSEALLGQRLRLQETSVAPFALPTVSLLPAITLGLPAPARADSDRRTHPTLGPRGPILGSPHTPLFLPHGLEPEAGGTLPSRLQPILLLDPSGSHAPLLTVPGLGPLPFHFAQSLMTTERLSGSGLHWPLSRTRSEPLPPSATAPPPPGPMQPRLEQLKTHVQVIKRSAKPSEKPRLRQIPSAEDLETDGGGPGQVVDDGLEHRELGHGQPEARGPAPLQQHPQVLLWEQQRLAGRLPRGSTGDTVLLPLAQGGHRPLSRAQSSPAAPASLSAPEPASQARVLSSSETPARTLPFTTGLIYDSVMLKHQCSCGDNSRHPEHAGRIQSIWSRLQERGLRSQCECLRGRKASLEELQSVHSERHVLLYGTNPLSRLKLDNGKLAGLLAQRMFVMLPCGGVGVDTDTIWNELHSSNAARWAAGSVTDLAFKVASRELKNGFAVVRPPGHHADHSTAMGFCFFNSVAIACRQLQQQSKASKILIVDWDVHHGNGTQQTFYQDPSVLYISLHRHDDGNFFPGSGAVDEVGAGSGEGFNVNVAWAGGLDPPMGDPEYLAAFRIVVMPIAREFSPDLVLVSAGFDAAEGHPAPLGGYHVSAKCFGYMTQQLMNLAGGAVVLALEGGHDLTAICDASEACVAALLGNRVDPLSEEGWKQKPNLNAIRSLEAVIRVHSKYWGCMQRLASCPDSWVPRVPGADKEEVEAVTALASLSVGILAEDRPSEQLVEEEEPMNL
# [1] = Aqueous solubility of compound measured for 24 hrs by shake flask based HPLC analysis; type: physicochemical; details: buffer
# B16-F10 [2] = assay: Induction of apoptosis in mouse B16-F10 cells at 2 uM measured for 48 hrs by Annexin-V/FITC staining based flow cytometry analysis relative to control; type: functional
# B16-F10 [3] = assay: Antiproliferative activity against mouse B16-F10 cells assessed as reduction in cell viability measured for 48 hrs by MTT assay; type: functional, cell-based; details: B16-F10, 48 h
# B16-F10 [4] = assay: Induction of apoptosis in mouse B16-F10 cells at 4 uM measured for 48 hrs by Annexin-V/FITC staining based flow cytometry analysis relative to control; type: functional
# B16-F10 [5] = assay: Induction of cell cycle arrest in mouse B16-F10 cells assessed as accumulation of cells at G0/G1 phase measured for 48 hrs by flow cytometry analysis; type: functional, cell-based; details: dose 0.5-4 µM
# [6] = target: T3, Protein deacetylase HDAC6 (Mus musculus) (UniProt Q9Z2V5); assay: Inhibition of HDAC6 in mouse B16-F10 cells assessed as effect on acetylated alpha-tubulin level at 1 to 2 uM measured for 24 hrs by Western blot analysis; type: cell-based; details: dose 1-2 µM
# T3 sequence (whole entry): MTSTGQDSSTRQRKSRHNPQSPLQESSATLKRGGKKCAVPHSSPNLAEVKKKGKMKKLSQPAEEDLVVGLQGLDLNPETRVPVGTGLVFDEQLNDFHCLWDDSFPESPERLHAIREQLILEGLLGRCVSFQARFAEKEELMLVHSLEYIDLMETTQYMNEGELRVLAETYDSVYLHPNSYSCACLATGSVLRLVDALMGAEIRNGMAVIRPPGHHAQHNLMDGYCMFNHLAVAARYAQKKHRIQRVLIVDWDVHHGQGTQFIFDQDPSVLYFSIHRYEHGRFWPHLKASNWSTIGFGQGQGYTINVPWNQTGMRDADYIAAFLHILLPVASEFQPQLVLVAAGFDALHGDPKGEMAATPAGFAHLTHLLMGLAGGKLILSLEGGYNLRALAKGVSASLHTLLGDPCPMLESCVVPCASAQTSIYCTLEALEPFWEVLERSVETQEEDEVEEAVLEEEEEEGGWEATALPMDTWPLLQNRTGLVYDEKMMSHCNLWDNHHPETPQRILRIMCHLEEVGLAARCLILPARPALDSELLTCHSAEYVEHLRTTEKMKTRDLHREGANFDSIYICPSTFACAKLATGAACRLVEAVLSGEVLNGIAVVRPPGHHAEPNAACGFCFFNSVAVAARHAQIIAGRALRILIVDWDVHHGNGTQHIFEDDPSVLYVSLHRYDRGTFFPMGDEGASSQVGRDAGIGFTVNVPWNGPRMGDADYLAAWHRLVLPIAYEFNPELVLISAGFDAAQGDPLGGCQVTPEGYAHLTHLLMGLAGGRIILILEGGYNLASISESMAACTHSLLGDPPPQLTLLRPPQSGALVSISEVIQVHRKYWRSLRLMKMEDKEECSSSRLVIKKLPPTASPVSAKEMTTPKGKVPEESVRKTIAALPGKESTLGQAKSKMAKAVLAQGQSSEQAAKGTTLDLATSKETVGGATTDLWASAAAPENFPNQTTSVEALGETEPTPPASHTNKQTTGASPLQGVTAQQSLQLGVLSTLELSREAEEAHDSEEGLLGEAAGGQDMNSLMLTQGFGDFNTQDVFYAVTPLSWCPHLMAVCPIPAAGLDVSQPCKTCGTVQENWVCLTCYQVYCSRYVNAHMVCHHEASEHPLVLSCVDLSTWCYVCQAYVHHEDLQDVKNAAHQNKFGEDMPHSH
SMILES,IC50 (Histone deacetylase 8) [µM],Activity (Raji),IC50 (Histone deacetylase 7) [µM],solubility thermodynamic at 24 h [1] [µg/mL],Activity (B16-F10 [2]) [%],IC50 (B16-F10 [3]) [µM],Activity (B16-F10 [4]) [%],Activity (B16-F10 [5]),inhibition [6]
Nc1ccccc1NC(=O)c1ccc(-c2ncc(CNc3ccccc3)s2)cc1,> 10,Active,> 10,3.8,18.77,1.34,20.96,Dose-Dependent Effect,inactive
CCCNNC(=O)c1ccc(CNC(=O)c2ncc(CNc3ccccc3)s2)cc1,> 10,Active,> 10,15.6,61.84,1.2,61.25,Dose-Dependent Effect,inactive
